Assays:
Na+ channels = assay type: cell-based, human
7889O neurons = assay type: cell-based, human
γ-secretase = molecular target: T1, γ-secretase (Homo sapiens, UniProt P49768); assay: Aβ production in conditioned media by ELISA; assay type: cell-based; conditions: 10 μM, control and PS1 cells
T1 construct: endogenous in cells

[1] = test system: adult SVZ neural progenitor cells; assay: Primary neurosphere formation of adult SVZ progenitors; assay type: cell-based; conditions: eight-week old mice, in the presence of EGF and FGF, 10 days in vitro, p=0.04
Experimental: (§1) This supports a potential pro-neurogenic role for NDP in adult neurogenesis.
Adult FVB/N mice were killed by cervical dislocation (n=3 per preparation) and their brains removed and placed into Pipes buffer (20 mM Pipes, 25 mM glucose, 0.12M NaCl, 0.5 mM KCl [ph 7.4]). The lateral walls of the lateral ventricles were dissected, collected in Pipes buffer and incubated in a mixture containing 1.2 mL of activated papain and 8.8 ml of Pipes buffer. Papain was activated 20 min in advance by placing 3 mg of papain (Worthington Biochemical) in 1 ml of 1.1 mM EDTA, 5.5 mM cysteine HCl. The pieces of tissue were incubated in papain solution at 37° C. on a rocking platform for 10 min and collected by centrifugation at 1300 rpm for 5 min. The cellular pellet was resuspended in 1 ml of DMEM-F12 (GIBCO) containing 0.7 mg of ovomucoid inhibitor and 1 mg of DNase. The cells were dissociated and neural precursor cells were separated from differentiated cells, myelin and extracellular matrix using density gradient separation by centrifugation step with 22% Percoll. […] The cells were counted and plated in 96well-low attachment plate (Corning) (1.5×10^5/mL) in the same medium containing 10 ng/mL of EGF receptor grade (Millipore) and 10 ng/mL human bFGF (Invitrogen). […] The numbers of neurospheres were counted for six 40× fields/well after 10 days in vitro. […]

human iPSC-derived NPCs = assay: Proliferation of iPSC-derived NPCs (ki67 staining); assay type: cell-based; conditions: d14 NPCs; data not shown
Excerpt: as §1

[2] = cited from earlier work

With tetraethylammonium [TEA] the “long lasting outward current after the fast inward current” value (K+ channels) was “cancelled”.
In the case of `NC1=N[C@H](O)[C@H]2[C@H]3O[C@]4(O)O[C@@H]([C@@H](O)[C@@]2(N1)[C@@H]4O)[C@]3(O)CO` [TTX, tetrodotoxin], the action potentials (Na+ channels) is reported as “blocked”, the inward currents (Na+ channels) is reported as “blocked” and the “kinetics of remaining Ca2+ transients” value (7889O neurons) is reported as “generally slower”.
For `C[C@H](NC(=O)Cc1cc(F)cc(F)c1)C(=O)N[C@H](C(=O)OC(C)(C)C)c1ccccc1` [DAPT], the Aβ production (γ-secretase) was “sufficient to block” and the Aβ production (γ-secretase; listed as DapT) was “blocks”.
For “recombinant norrin: recombinant Norrin protein (R&D systems), product of NDP; secreted molecule activating canonical Wnt signaling via Frizzled-4”, the “proliferation as measured by primary neurosphere formation” value [1] was “increased proliferation”, the “proliferation as measured by primary neurosphere formation” value ([1]; listed as recombinant Norrin protein) was “induces proliferation” and the “proliferation (ki67 staining)” value (human iPSC-derived NPCs) was “did not show differences in proliferation”.
In the case of `CC12CC3CC(C)(C1)CC(N)(C3)C2` [Memantine], the reported adverse events ([2]; in vivo) is listed as “infrequent and mild” and the efficacy in treatment ([2]; moderate to severe Alzheimer's disease) is listed as “moderately efficacious”.
